Laboratory results reported in patent US20040038888A1 (priority 2002, published 2004).
Ends that are not written are not given here.

How the values were obtained:
[1] = tested on: mouse adult neural stem cells; test: Intracellular ATP assay, adult mouse NSC, non-adherent culture; format: cell-based; conditions: for effect of inhibitor on the PACAP increase of intracellular ATP: co-incubated with PACAP 100 nM, 4 days, 10 uM H89, 1 uM U73122, 1 uM Gö6976
Description: The anterior lateral wall of the lateral ventricle of 5-6 week old mice was enzymatically dissociated in 0.8 mg/ml hyaluronidase and 0.5 mg/ml trypsin in DMEM containing 4.5 mg/ml glucose and 80 units/ml DNase at 37° C. for 20 min. The cells were gently triturated and mixed with three volumes of Neurosphere medium (DMEM/F12, B27 supplement, 12.5 mM HEPES pH7.4) containing 20 ng/ml EGF (unless otherwise stated), 100 units/ml penicillin and 100μg/ml streptomycin. After passing through a 70 μm strainer, the cells were pelleted at 160×g for 5 min. The supernatant was subsequently removed and the cells resuspended in Neurosphere medium supplemented as above, plated out in culture dishes and incubated at 37° C. Neurospheres were ready to be split approximately 7 days after plating.
To split neurosphere cultures, neurospheres were collected by centrifugation at 160×g for 5 min. The neurospheres were resuspended in 0.5 ml Trypsin/EDTA in HBSS (1×), incubated at 37° C. for 2 min and triturated gently to aid dissociation. Following a further 3 min incubation at 37° C. and trituration, 3 volumes of ice cold NSPH-media-EGF were added to stop further trypsin activity. The cells were pelleted at 220×g for 4 min, resuspended in fresh Neurosphere medium supplemented with 20 ng/ml EGF and 1 nM bFGF plated out and incubated at 37° C.
Mouse neurospheres, cultured as described above, from passage 2, were seeded in DMEM/F12 supplemented with B27 into a 96-well plate as single cells (10000 cells/well) to the substances to be measured were added at the concentrations indicated. After 3 days incubation, intracellular ATP was measured using the ATP-SL kit from BioThema, Sweden, according to the manufacturer's instructions. PACAP and VIP were purchased from Bachem. Maxadilan was a kind gift from Richard G Titus, Dept Microbiology, Immunology and Pathology, College of Veterinary Medicine and Biological Sciences, Colorado State University.
In experiments where signalling pathways were examined, cells were seeded as single cells as mentioned above. PACAP, 100 nM, was co incubated with 10 uM PKA inhibitor H89 (Alexis-Biochemicals) or 1 uM PLC inhibitor U73122 (Alexis-Biochemicals) or 1 uM of the PKC inhibitor Gö6976 (Sigma-Aldrich). Cells were incubated for 4 days before measurements of ATP.
In the experiment analysing the combinatory effect of PACAP and EGF, PACAP at 100 nM was co-incubated with 3 nM EGF for 3 days.

AP-1 = AP-1 transcription factor reporter assay; format: cell-based, mouse; conditions: PD89059 10 μM with PACAP 100 nM
Description: Vectors: Vector DNA containing reporter elements for AP-1 and empty cloning vector (pTAL), with a luciferace reporter were purchased from Promega. The vectors were propagated in E. coli strain JM-109 (Promega) and purified with Qiagens maxi-prep Kit (Qiagen). The concentration was diluted to approximately 1 mg/ml per vector.
Transfection: Transient transfection was performed by seeding cells as above in suspension neurosphere cell culture and adherent neurosphere cell culture (1 to 3 day incubation) using 30,000 single cells/well. Each well was transiently transfected with […] plasmid, 0.6 μg Nupherin-neuron (Biomol) and 0,6 μl of Fugene-6 (Roche). Plasmid and Nupherin was mixed and diluted in DMEM/F12 to a total volume of 50 μl/well, and were incubated for 15 minutes prior to mixing with Fugene-6 that were diluted in DMEM/F12 to a total volume of 50 μl/well. The mix of plasmid and Nupherin and Fugene-6 were incubated for 20 min. The volume was adjusted to 100 μl prior to addition of 100 μl/well of transfection reagent.
Assay: The following day the transiently transfected cells were applied with PACAP (Bachem) to final concentration of 100 nM/well, in the presence or absence of MEK inhibitor, […] (Sigma-Aldrich). Luciferace activity was analysed with steady glow (Promega) according to the instructions of the manufacturer. Cells were analysed 20 hours after induction with PACAP.

NSC from LVW = test: Culture of NSC for cell counting; format: cell-based, mouse; conditions: PACAP 100 nM, VEGF 1 nM, in place of EGF, 7 days; VEGF relative to PACAP treated NSC
Description: Anterior lateral ventricle wall was dissected and the cells treated as stated above, however, in place of EGF, the medium was supplemented either with PACAP (100 nM), VEGF (1 nM) or a combination of both at the stated concentrations. The cell suspension was plated into wells of a 24 well plate. The medium was further supplemented with PACAP and/or VEGF every 2 days. After 7 days in culture, the NSC washed in phosphate buffered saline and dissociated with trypsin/EDTA. Cells numbers per well were counted using a Bürker chamber. VEGF was purchased from R&D Systems.

For “Vasoactive intestinal peptide (HSDAVFTDNYTRLRKQMAVKKYLNSILN; ends and bridges not checked; UniProt P01282 125-152, looked up) [VIP, 28-amino acid peptide]”, the “intracellular ATP, and hence cell number” value ([1]; VIP at 1 μM, non-adherent conditions, 3 days, relative to control) was “statistically significant increase in intracellular ATP”.
In the case of Cn1c2ccccc2c2c3c(c4c5ccccc5n(CCC#N)c4c21)CNC3=O [Gö6976, reference compound], the “effect of inhibitor on the PACAP increase of intracellular ATP” value [1] is reported as “entirely negate the effect of PACAP”.
With COc1cccc(-c2cc(=O)c3ccccc3o2)c1N [PD89059, reference compound] the “effect of MEK inhibitor on the PACAP induction of AP-1” value (AP-1) was “inhibited”.
“vascular endothelial growth factor [VEGF]” was tested, and the cell number (NSC from LVW) was “significant increase in cell number”.
In the case of O=S(=O)(NCCNC/C=C/c1ccc(Br)cc1)c1cccc2cnccc12 [H89, reference compound], the “effect of inhibitor on the PACAP increase of intracellular ATP” value [1] is reported as “unaltered”.
With COc1ccc2c(c1)CC[C@@H]1[C@@H]2CC[C@]2(C)[C@@H](NCCCCCCN3C(=O)C=CC3=O)CC[C@@H]12 [U73122, reference compound] the “effect of inhibitor on the PACAP increase of intracellular ATP” value [1] was “entirely negate the effect of PACAP”.
In the case of “EGF: mitogen, growth factor for cell cultures from BD Biosciences”, the “intracellular ATP levels, and hence NSC number” value ([1]; PACAP 100 nM, EGF 3 nM, alone or combined, 3 days) is reported as “increased intracellular ATP levels”.
